This note sets out measurements from ChEMBL document CHEMBL3886495, “Aminoheteroaryl benzamides as kinase inhibitors” (2016).

The target of test [1] is T1, Mitogen-activated protein kinase 1 (Homo sapiens, UniProt P28482). In words: The assay was carried out in 20 mM HEPES [pH 7.5], 5 mM MgCl2, 1 mM DTT, 0.01% Tween-20, 0.05% BSA using 0.02 nM ERK2, 400 nM ERKtide peptide and 35 uM ATP (all concentrations are final in the reaction) in a total volume of 10.25 uL. A 16-point, half-log dilution series of compounds at 41x final concentration was used for generating IC50 curves. Compound dilution series were prepared in 100% DMSO. ERK2 was preincubated with compounds for 30 minutes at ambient temperature. Reaction was initiated by addition of a substrate cocktail of ERKtide peptide and ATP and was allowed to proceed for 4 hours at ambient temperature. Reaction was terminated by addition of 10 uL of a 2x stop buffer consisting of 100 mM Tris-Cl [pH 7.5], 25 mM EDTA, 0.01% Tween 20, 20 ug/mL of AlphaScreen Protein A Acceptor Beads, 20 ug/mL of Streptavidin Donor Beads (PerkinElmer, Waltham, Mass.), and 1:1000 dilution phospho-EGF Receptor (Thr669) antibody (Cat #8808, Cell Signaling Technology, Danvers, Mass.). Terminated reactions were read, after overnight incubation in the dark, on an EnVision Multilabel Plate Reader (PerkinElmer, Waltham, Mass.), with excitation and emission wavelengths set to 680 nm and 570 nm, respectively. IC50 values were determined using a four-parameter fit.

Test [2] deals with T1, Mitogen-activated protein kinase 1. Kind of test: (§1) AlphaScreen Assay: Compound potency against activated ERK2 is determined using a kinase assay that measures ERK2-catalyzed phosphorylation of biotinylated ERKtide peptide substrate ([Biotin]-AHA-KRELVEPLTPSGEAPNQALLR-[NH2], the peptide sequence derived from EGF receptor: SEQ ID NO:1). The assay is carried out in 50 mM HEPES [pH 7.5], 5 mM MgCl2, 1 mM DTT, 0.01% Tween-20, 0.05% BSA using 0.25 nM ERK2, 200 nM ERKtide peptide and 35 uM ATP (all concentrations are final in the reaction) in a total volume of 10.25 uL. A 16-point, half-log dilution series of compounds at 41x final concentration is used for generating IC50 curves. Compound dilution series are prepared in 100% DMSO. ERK2 is preincubated with compounds for 30 minutes at ambient temperature. Reaction is initiated by addition of a substrate cocktail of ERKtide peptide and ATP and is allowed to proceed for 2-3 hours at ambient temperature. Reaction is terminated by addition of 10 uL of a 2x stop buffer consisting of 100 mM Tris-Cl [pH 7.5], 25 mM EDTA, 0.01% Tween 20, 10 ug/mL of AlphaScreen Protein A Acceptor Beads, 10 ug/mL of Streptavidin Donor Beads (PerkinElmer, Waltham, Mass.), and 1.4 ug/mL phospho-EGF Receptor (Thr669) antibody (Cat #3056, Cell Signaling Technology, Danvers, Mass.). Background: In Alpha technology, singlet oxygen from a donor bead excites a nearby acceptor bead.

The target is the same in test [3]. Described as §1, with “Kinase Assay (New):” for “AlphaScreen Assay:”, “Mass.). Terminated reactions are read, after overnight incubation in the dark, on an EnVision Multilabel Plate Reader (PerkinElmer, Waltham, Mass.), with excitation and emission wavelengths set to 680 nm and 570 nm, respectively. IC50 values are determined using a four-parameter fit.” for “Mass.).”.

Molecules are shown by their SMILES.

T1 sequence (P28482 whole entry): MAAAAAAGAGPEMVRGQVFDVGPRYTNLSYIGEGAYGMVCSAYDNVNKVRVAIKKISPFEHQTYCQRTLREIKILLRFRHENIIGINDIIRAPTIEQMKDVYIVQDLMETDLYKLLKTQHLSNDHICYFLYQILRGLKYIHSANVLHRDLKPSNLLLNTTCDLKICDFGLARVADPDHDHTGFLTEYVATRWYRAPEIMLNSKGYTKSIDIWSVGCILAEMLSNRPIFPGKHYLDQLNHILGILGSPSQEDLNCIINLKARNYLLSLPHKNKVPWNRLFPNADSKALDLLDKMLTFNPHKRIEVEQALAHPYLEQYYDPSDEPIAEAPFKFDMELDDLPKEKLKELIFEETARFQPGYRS

With `Nc1ncc([C@H]2CC[C@H](O)CC2)nc1-c1ccc(C(=O)NCc2cccc(Cl)n2)c(F)c1`, the IC50 (as a rule, the concentration that gives 50% inhibition) in test [1] came to 21 nM.
Regarding `Cc1nn(C(F)F)cc1-c1cnc(N)c(-c2ccc(C(=O)N[C@H](CO)c3cccc(Cl)c3)c(F)c2)c1`, the IC50 in test [1] came to 0.0245 nM.
With `Nc1ncc(N2CCOCC2)cc1-c1ccc(C(=O)N[C@H](CO)c2ccccc2)c(F)c1`, the IC50 in test [1] was 1.31 nM; in test [2], 20.6 nM.
For `Nc1ncc(C2CCOCC2)nc1-c1ccc(C(=O)N[C@H](CO)C2CCCCC2)c(F)c1`, the IC50 in test [3] amounted to 26.5 nM.
In the case of `Nc1ncc([C@H]2CC[C@@H](O)CC2)nc1-c1ccc(C(=O)NCc2cccc(Cl)n2)c(F)c1`, the IC50 in test [1] is 159 nM.
In the case of `Cc1nn(C)cc1-c1cnc(N)c(-c2ccc(C(=O)N[C@H](CO)c3ccccc3)c(F)c2)c1`, the IC50 in test [3] worked out at 1.41 nM.
As to `Cn1cc(-c2cnc(N)c(-c3ccc(C(=O)N[C@H](CO)c4ccccc4)c(F)c3)c2F)cn1`, the IC50 in test [3] was determined as 9.77 nM.
Regarding `Nc1cc(-c2cc(C3CCOCC3)cnc2N)ccc1C(=O)N[C@H](CO)c1ccccc1`, the values for the IC50 in test [1] and in test [2] were 3.04 nM and 5.24 nM, respectively.
With `Cn1ccc(-c2cnc(N)c(-c3ccc(C(=O)N[C@H](CO)c4cccc(Cl)c4)c(F)c3)c2)n1`, the IC50 in test [1] was determined as 0.0937 nM.
With `CC(C)n1cc(-c2cnc(N)c(-c3ccc(C(=O)N[C@H](CO)c4ccccc4)c(F)c3)c2)cn1`, the IC50 in test [3] stood at 2.06 nM.
As to `CS(=O)(=O)[C@H]1CC[C@H](c2cnc(N)c(-c3ccc(C(=O)NCc4ccccc4)c(F)c3)n2)CC1`, the IC50 is 64.4 nM in test [3] and 29.7 nM in test [1].
